The source of these data is patent US20210221822A1, “TRICYCLIC DERIVATIVES INHIBITOR, PREPARATION METHOD, AND APPLICATIONS THEREOF” (Jiangsu Hansoh Pharmaceutical Group Co., Ltd., priority 2018, published 2021).

The structures appear in SMILES notation. Like-named read-outs stand apart in the source and are kept apart here.

The target in one series is T1, PI3Kδ (Homo sapiens, UniProt O00329).
T1 construct: purchased Carna 11-103
The experiment in a line: ADP-Glo lipid kinase assay, PI3Kδ kinase activity. It counts as biochemical. The note with it: 0.1 nM enzyme, 90 min, 100 μM ATP. The protocol:
(§1) Experimental method: Promega's ADP-Glo lipid kinase assay method (Promega #V9102) was applied in this experiment. Lipid kinase PI3Kα/β/γ/δ catalyzed the generation of ADP from ATP in the presence of the substrate PIP2: 3PS and ATP. The lipid kinase activity was characterized by measuring the ADP content in the reaction, and the half inhibitory concentration IC50 of the compound on inhibiting PI3Kα/β/γ/δ kinase activity was thus obtained.
(§2) The kinase reaction was carried out in a white 384-well plate (Perkin Elmer #6007299). 2 μL of the compound solution of different concentrations diluted with ddH2O containing 1% DMSO was added to each well. 2 μL of ddH2O containing 1% DMSO was added to the positive control well. 2 μL of 0.1-2 nM PI3K kinase solution diluted with 5× kinase buffer (HEPES 250 mM, MgCl2 15 mM, NaCl 250 mM, BSA 0.05%) was added to each well. 2 μL of 5× kinase buffer was added to the negative control well. 4 μL of 50 μM substrate PIP2: 3PS (Promega #V1701) formulated with 10× Dilution buffer and ddH2O was added to all wells. Finally, 2 μL of […] ATP solution diluted with water was added to start the reaction. After the reaction was carried out at room temperature for 90 to 120 minutes, 10 μL of ADP-Glo Reagent (containing 10 mM MgCl2) was added to each well, and reacted at room temperature for 60 minutes to remove excess ATP in the reaction. 20 μL of Kinase Detection Reagent was added to each well, and reacted at room temperature in the dark for 20 minutes. The chemiluminescence value was measured by the BioTek Synergy H1 microplate reader.
(§3) The percentage inhibition data of the compound-treated well was calculated through the positive control well (DMSO control well) and negative control well (no kinase added) on the plate {% inhibition rate=100−[(test compound value−negative control value)]/(positive control value−negative control value)×100}. The IC50 value was calculated by fitting the data of different concentrations and corresponding percentage inhibition rates to a four-parameter nonlinear logic formula with GraphPad prism.

A further series addresses T2, PI3Kβ (Homo sapiens, UniProt P42338).
T2 construct: purchased Carna 11-102
The experiment in a line: ADP-Glo lipid kinase assay, PI3Kβ kinase activity. The note with it: 0.4 nM enzyme, 90 min, 100 μM ATP. It counts as biochemical. The protocol:
as §1, §2, §3

Series [1] has as its system PI3Kα mutant cancer cells MKN1 (E545K). The experiment in a line: Cell Titer-Glo proliferation inhibition, MKN1. Type of series: cell-based. The note with it: Homo sapiens, MKN-1, 48 to 96 hours. The protocol: (§4) Experimental method: The proliferation inhibitory effect of the compounds of the examples on PI3Kα mutant cancer cell lines HCC1954, HGC-27 and MKN1 was determined by Cell Titer-Glo method. The cell lines were cultured in RPMI 1640 medium (Gibco #22400089) containing 10% FBS (Gibco #10091148) and 1% P/S (Hyclone #SV30010) at 37° C. and 5% CO2. Before the experiment, the cells were collected and counted, and then the cell density was adjusted. The cells were inoculated in a white 96-well plate (Corning #3610) at a density of 1000 to 10000 cells/well, and incubated in an incubator at 37° C., 5% CO2 overnight. The compound solution of different concentrations was added, and corresponding vehicle control was set at the same time. The cell plate was further incubated in an incubator at 37° C., 5% CO2 for 48 to 96 hours. The cell plate and its content were equilibrated to room temperature. 20 to 100 μL of Cell Titer-Glo solution (Promega #G7573) was added to each well, and the plate was shaked well and incubated at room temperature in the dark for 5 to 30 minutes. The chemiluminescence value was measured by the BioTek SynergyH1 microplate reader.
(§5) The percentage inhibition data of the well treated by the compounds of the examples was calculated through the vehicle control well on the plate {% inhibition rate=100−(test compound value/vehicle control value)×100}. The IC50 value was calculated by fitting the data of different concentrations and corresponding percentage inhibition rates to a four-parameter nonlinear logic formula with GraphPad prism.

The target in a further series is T3, PI3Kγ (Homo sapiens, UniProt P48736).
T3 construct: purchased Thermofisher PV4786
Kind of series: ADP-Glo lipid kinase assay, PI3Kγ kinase activity. Type of series: biochemical. The note with it: 0.4 nM enzyme, 120 min, 50 μM ATP. As for the experimental part: as §1, §2, §3

The subject of series [2] is PI3Kα mutant cancer cells HGC-27 (E542K). Kind of series: Cell Titer-Glo proliferation inhibition, HGC-27. It counts as cell-based. The note with it: Homo sapiens, 48 to 96 hours. The protocol:
as §4, §5

The target of the next series is T4, PI3Kα (Homo sapiens, UniProt P42336).
T4 construct: purchased Promega V1721
Kind of series: ADP-Glo lipid kinase assay, PI3Kα kinase activity. It counts as biochemical. The note with it: for IC50: ADP-Glo, 0.1 nM enzyme, 120 min, 50 μM ATP; for Selectivity of PI3Kα vs PI3Kβ: ratio of IC50 PI3Kβ to IC50 PI3Kα; for Selectivity of PI3Kα vs PI3Kγ: ratio of IC50 PI3Kγ to IC50 PI3Kα; for Selectivity of PI3Kα vs PI3Kδ: ratio of IC50 PI3Kδ to IC50 PI3Kα. The protocol:
as §1, §2, §3

The subject of series [3] is PI3Kα mutant cancer cells HCC1954 (H1047R). Kind of series: Cell Titer-Glo proliferation inhibition, HCC1954. The note with it: Homo sapiens, 48 to 96 hours. Type of series: cell-based. The protocol:
as §4, §5

Series [4] in a line: Toxicokinetics in the 7-day repeated intragastric administration study in SD rats. It counts as in vivo, Sprague-Dawley (SD) rats. The note with it: for AUC: Sprague-Dawley, rat, plasma, po, after the last administration, read-out: average system exposure AUC. The source says: Liquid chromatography−mass spectrometry (detector: API4000, electrospray source (ESI) positive ion mode, column: Agilent ZORBAX XDB-C18 (3.5 μm, 2.1×50 mm)), which was used for the biological analysis of plasma sample.
(§6) 1) In the experiment, 112 rats (56 rats/sex) were divided into 14 groups by sex and body weight, wherein 70 rats were used for toxicology study (groups 1 to 7, 5 rats/sex/group) and 42 rats were used for toxicokinetics study (groups 8 to 14, 3 rats/sex/group).
(§7) 3) The animals in groups 2 and 9, groups 3 and 10, and groups 4 and 11 were intragastrically administered GDC-0077 at 10, 30 and 60 mg/kg, respectively.
(§8) 4) The animals in groups 5 and 12, groups 6 and 13, and groups 7 and 14 were intragastrically administered the compound of Example 51 at 10, 30 and 60 mg/kg, respectively.
(§9) 5) The animals were administered once a day for 7 consecutive days (the animals in groups 7 and 14 were administered for 6 consecutive days).
(§10) 7) During the experiment, items such as clinical observation, body weight, food intake, clinicopathological indicators (blood cell count, coagulation function, blood biochemistry), toxicokinetics and the like were studied.

Series [5] can be described thus: Pharmacokinetic (PK) assay in mice. It counts as in vivo. The note with it: male, Balb/c, mouse, plasma, po, single intragastric 5 mg/kg. The protocol:
The pharmacokinetic assay of the preferred compounds of the examples of the present invention in mice was carried out in Balb/c male mice (Shanghai Jiesijie Laboratory Animal Co., LTD). • Administration mode: single intragastric administration. • Administration dose: 5 mg/10 ml/kg (body weight). • Formulation: the compound was dissolved in 0.5% CMC-Na by ultrasound to obtain a clear solution or homogeneous suspension. • Sampling points: 0.5, 1, 2, 4, 6, 8 and 24 hours after administration. • Sample process: • 1) 0.1 mL of blood was taken from the orbit, placed in a K2-EDTA tube, and centrifuged for 5 to 20 minutes at room temperature at 1000 to 3000×g to separate the plasma, which was then stored at −80° C. • 2) 160 uL of acetonitrile was added to 40 uL of plasma sample for precipitation, and then the mixture was centrifuged for 5 to 20 minutes at 500 to 2000×g. • 3) 100 uL of processed supernatant was taken and analyzed by LC/MS/MS assay to determine the concentration of the test compound. • LC-MS/MS assay: • Liquid chromatography condition: Shimadzu LC-20AD pump • Mass spectrometry condition: AB Sciex API 4000 mass spectrometer • Chromatographic column: phenomenex Gemiu 5 μm C18 50×4.6 mm • Mobile phase: solution A was 0.1% aqueous formic acid solution, and solution B was acetonitrile • Flow rate: 0.8 mL/min • Elution time: 0-4 minutes gradient elution • Pharmacokinetics: […]
The main parameters were calculated using WinNonlin 6.1.

Series [6] is described as follows: Toxicity test of a 7-day repeatedly intragastric administration in SD rats. Type of series: in vivo.
Excerpt: as §6
2) As the vehicle control group, the animals in groups 1 and 8 were intragastrically administered 20% aqueous SBE-(3-CD (Captisol) solution.
as §7, §8, §9
6) The administration volume was 10 mL/kg.
as §10
8) All animals were euthanized on Day 8 (the animals in groups 7 and 14 were euthanized after administration on Day 6).
9) During the experiment, gross anatomy observation was carried out on animals in groups 1 to 7, animals in group 14 and dead animals (including animals in toxicokinetics study), and histopathological examination was carried out on abnormal tissues, gastrointestinal tissues (such as colon and cecum) and immune tissues (such as thymus).

Where [7] appears, read: SD rats, 10, 30 and 60 mg/kg (low, middle, high dose).

T4 sequence (P42336 whole entry): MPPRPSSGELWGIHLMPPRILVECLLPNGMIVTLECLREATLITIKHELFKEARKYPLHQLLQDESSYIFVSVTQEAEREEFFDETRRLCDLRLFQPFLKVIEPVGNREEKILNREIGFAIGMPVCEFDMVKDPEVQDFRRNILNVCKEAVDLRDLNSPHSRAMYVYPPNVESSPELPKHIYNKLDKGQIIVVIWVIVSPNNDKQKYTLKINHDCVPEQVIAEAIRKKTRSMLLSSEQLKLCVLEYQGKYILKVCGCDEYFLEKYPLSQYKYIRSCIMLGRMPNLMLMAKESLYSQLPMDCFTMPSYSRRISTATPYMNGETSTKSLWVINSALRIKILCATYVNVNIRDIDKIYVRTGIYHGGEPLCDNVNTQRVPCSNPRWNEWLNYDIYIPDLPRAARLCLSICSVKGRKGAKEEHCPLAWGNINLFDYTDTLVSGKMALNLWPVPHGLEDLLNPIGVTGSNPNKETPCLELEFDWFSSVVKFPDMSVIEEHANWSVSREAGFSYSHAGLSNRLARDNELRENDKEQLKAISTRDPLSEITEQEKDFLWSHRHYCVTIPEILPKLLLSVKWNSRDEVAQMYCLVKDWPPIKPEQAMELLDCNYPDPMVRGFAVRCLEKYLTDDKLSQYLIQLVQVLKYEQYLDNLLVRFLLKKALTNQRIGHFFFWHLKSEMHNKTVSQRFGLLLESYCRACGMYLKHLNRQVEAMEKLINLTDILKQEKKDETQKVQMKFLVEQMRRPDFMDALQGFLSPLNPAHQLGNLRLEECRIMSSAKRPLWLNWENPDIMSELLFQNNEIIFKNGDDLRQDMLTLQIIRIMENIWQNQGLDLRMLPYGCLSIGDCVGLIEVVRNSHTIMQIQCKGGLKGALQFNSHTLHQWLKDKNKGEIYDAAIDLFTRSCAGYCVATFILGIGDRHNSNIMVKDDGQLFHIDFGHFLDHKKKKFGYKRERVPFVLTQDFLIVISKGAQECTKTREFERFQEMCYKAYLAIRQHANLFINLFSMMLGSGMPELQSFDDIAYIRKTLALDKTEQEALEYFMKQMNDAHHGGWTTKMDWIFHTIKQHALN
T4 sequence (P27986 whole entry partner): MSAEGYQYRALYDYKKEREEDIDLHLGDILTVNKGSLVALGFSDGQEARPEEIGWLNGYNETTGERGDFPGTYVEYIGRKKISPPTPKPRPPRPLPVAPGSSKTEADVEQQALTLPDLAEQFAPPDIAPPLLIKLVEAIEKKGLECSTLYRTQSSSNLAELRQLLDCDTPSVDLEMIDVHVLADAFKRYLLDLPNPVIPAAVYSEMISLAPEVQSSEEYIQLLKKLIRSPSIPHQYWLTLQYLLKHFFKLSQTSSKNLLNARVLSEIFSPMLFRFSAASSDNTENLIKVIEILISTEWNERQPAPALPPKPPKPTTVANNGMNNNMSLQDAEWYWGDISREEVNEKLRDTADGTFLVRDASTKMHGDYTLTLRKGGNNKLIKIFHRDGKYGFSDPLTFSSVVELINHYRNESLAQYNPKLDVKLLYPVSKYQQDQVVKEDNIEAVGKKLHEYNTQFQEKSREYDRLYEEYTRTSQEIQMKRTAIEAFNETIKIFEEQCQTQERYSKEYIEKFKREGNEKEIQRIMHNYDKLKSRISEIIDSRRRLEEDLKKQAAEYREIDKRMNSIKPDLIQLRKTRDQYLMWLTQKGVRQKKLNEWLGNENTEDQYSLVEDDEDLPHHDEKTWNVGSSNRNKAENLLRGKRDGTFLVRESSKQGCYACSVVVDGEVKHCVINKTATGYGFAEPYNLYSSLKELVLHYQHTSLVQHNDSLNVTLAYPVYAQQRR
T1 sequence (O00329 whole entry): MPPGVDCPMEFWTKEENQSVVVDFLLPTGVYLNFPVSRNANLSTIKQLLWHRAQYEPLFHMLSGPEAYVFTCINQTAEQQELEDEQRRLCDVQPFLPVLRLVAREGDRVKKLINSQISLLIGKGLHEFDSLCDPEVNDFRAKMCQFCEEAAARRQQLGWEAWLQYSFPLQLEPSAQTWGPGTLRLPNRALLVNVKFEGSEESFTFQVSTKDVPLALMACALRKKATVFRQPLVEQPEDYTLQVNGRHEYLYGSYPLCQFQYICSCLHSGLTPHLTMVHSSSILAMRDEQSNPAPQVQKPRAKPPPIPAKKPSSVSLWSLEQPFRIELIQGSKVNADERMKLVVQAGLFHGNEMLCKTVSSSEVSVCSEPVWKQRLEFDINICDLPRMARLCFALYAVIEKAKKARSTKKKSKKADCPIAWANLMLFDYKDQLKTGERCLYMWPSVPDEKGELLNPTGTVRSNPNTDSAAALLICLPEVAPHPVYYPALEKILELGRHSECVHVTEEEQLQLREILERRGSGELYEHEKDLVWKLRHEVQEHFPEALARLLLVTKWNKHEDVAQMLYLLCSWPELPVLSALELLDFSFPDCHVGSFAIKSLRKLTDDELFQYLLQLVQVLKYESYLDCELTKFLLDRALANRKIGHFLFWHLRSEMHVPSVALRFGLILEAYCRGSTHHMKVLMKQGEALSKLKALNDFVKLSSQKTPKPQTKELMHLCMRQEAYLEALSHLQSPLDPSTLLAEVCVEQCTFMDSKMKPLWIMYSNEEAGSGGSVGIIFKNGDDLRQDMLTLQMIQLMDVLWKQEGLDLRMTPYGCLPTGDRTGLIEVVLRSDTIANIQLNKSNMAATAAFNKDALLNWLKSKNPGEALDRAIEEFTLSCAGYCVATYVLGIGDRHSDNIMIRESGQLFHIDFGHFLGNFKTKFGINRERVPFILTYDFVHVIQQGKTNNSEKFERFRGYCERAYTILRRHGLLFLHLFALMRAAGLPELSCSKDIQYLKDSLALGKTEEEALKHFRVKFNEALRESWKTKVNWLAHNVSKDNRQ
T1 sequence (P27986 whole entry partner): as the sequence (P27986 whole entry partner) above
T3 sequence (P48736 whole entry): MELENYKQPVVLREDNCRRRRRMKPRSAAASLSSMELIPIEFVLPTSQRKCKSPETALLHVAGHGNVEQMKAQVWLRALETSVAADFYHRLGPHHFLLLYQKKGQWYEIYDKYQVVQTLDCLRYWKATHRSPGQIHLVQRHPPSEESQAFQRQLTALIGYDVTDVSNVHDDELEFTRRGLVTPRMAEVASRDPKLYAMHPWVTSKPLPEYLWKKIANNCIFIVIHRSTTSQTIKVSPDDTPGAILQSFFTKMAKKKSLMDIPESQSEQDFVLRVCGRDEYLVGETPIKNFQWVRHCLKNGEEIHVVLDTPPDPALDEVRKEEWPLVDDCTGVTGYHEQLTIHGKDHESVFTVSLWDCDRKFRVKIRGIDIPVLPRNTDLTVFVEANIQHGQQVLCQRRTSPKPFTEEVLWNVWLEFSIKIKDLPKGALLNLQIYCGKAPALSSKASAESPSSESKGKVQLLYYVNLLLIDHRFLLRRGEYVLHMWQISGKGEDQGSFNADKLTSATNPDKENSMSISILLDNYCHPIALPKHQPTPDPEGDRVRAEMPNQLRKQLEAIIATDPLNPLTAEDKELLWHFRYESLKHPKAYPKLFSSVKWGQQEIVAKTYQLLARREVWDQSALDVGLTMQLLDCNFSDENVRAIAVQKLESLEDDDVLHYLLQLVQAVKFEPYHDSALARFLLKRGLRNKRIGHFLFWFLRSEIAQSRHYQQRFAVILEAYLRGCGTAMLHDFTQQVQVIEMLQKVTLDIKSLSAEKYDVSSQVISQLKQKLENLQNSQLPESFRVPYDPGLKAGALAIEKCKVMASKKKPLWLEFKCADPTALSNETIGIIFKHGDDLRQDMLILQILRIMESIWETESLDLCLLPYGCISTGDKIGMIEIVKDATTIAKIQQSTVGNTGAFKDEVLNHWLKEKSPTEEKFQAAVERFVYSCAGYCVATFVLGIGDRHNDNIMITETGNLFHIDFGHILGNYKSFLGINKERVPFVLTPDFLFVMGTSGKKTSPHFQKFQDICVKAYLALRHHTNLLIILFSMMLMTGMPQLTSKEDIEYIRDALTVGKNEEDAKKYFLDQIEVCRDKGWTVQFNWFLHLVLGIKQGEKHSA
T2 sequence (P42338 whole entry): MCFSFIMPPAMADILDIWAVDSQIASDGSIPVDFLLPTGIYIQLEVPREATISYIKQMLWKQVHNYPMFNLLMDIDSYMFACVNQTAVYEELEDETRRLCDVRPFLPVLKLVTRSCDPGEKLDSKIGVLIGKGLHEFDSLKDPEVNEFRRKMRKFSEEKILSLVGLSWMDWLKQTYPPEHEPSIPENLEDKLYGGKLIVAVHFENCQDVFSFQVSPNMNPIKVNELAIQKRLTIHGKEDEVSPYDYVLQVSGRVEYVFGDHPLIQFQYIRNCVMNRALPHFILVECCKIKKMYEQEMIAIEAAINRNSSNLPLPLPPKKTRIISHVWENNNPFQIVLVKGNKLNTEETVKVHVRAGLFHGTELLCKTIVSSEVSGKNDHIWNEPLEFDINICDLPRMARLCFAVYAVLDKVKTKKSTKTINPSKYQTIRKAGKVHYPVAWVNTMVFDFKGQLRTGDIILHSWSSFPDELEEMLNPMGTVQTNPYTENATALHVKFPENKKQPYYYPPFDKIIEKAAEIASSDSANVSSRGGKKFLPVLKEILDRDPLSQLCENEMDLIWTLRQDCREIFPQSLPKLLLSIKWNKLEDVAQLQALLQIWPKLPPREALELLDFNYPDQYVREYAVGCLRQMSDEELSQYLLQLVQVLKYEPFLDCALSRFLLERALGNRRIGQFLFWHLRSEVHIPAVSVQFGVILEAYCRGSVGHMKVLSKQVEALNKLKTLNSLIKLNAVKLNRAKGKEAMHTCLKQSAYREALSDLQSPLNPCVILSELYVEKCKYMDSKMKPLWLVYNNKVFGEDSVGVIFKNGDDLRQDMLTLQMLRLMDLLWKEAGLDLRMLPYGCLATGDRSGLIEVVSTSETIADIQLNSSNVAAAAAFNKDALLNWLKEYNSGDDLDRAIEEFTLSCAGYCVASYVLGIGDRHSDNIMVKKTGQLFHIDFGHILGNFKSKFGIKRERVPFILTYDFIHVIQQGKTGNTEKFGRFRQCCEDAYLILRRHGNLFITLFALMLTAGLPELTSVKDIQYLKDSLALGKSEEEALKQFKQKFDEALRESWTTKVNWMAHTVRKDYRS
T2 sequence (P27986 whole entry partner): as the sequence (P27986 whole entry partner) above

Turning to `C[C@H](Nc1ccc2c(c1)OCCn1cc(N3C(=O)OC[C@H]3CC#N)nc1-2)C(N)=O` [Example 118, (S)-2-((2-((R)-4-(cyanomethyl)-2-oxooxazolidin-3-yl)-5,6-dihydrobenzo[f]imidazo[1,2-d][1,4]oxazepin-9-yl)amino)propanamide], the IC50 on PI3Kδ was determined as 50 nM; at PI3Kβ, 190 nM; in [1] it was 398 nM; at PI3Kγ, 74 nM; in series [2] it was 371 nM; at PI3Kα, 1.3 nM. In series [3], the IC50 worked out at 140 nM. The “Selectivity of PI3Kα vs PI3Kβ” value at PI3Kα amounted to 146. Besides, the “Selectivity of PI3Kα vs PI3Kγ” value on PI3Kα came to 57. The “Selectivity of PI3Kα vs PI3Kδ” value at PI3Kα worked out at 38.
`C[C@H](Nc1ccc2c(c1)OCCn1cc(N3C(=O)SC[C@H]3C(F)F)nc1-2)C(N)=O` [Example 51, (S)-2-((2-((R)-4-(difluoromethyl)-2-oxothiazolidin-3-yl)-5,6-dihydrobenzo[f]imidazo[1,2-d][1,4]oxazepin-9-yl)amino)propanamide]: the IC50 at PI3Kδ is 49 nM. For the same molecule, the IC50 on PI3Kβ came to 168 nM. Besides, in [4] (30 mg/kg), the “Cmax and AUC(0-24h) compared with GDC-0077” value was “significantly higher than those of GDC-0077”. The AUC in series [4] (10 mg/kg intragastric once a day, female) stood at 3170 ng·h/mL. Moreover, the AUC in series [4] (10 mg/kg intragastric once a day, male) turned out to be 2110 ng·h/mL. In addition, the AUC in [4] (30 mg/kg intragastric once a day, female) was 15900 ng·h/mL. Moreover, the AUC in series [4] (30 mg/kg intragastric once a day, male) came out at 11400 ng·h/mL. Further, in [4] (same dose), the “system exposure compared with GDC-0077” value is “significantly higher than that of GDC-0077 at the same dose”. Further, at PI3Kγ, the IC50 came out at 90 nM. Besides, the AUC(0-t) in series [5] (read-out: Area under curve AUC0-t) amounted to 2180 ng·h/mL. Also, the AUC(0-inf) in series [5] (read-out: Area under curve AUC0-∞) was 2270 ng·h/mL. The half-life in series [5] (read-out: Half-life t1/2(h) (converted)) was 1.6 h. The MRT in series [5] (read-out: Mean residence time MRT) was 2.2 h. Besides, the Tmax in series [5] (read-out: Peak time tmax) turned out to be 0.5 h. The Cmax in [5] (read-out: Plasma concentration Cmax) was 1060 ng/mL. For the same molecule, on PI3Kα, the IC50 came to 0.2 nM, the “Selectivity of PI3Kα vs PI3Kβ” value was found to be 840, the “Selectivity of PI3Kα vs PI3Kγ” value turned out to be 450 and the “Selectivity of PI3Kα vs PI3Kδ” value is listed as 245. In series [6] (SD rats), the “main target organs of the toxicity” value was “gastrointestinal tissues (such as stomach and cecum) and immune tissues (such as thymus)”; the “tolerance compared with GDC-0077” value is recorded as “better than that of GDC-0077”. In series [6] (SD rats, 10, 30 and 60 mg/kg), the Blood biochemistry entry is “In 60 mg/kg group, AST, Glu and UREA increased in both male and female animals; in 30 mg/kg group, AST and UREA increased in both male and female animals, and Glu increased in male animals; and in 10 mg/kg group, AST increased in both male and female animals”; the “Blood cell counting and coagulation function” value was “In each dose group, Retic decreased in both male and female animals; and in 30 mg/kg group and 60 mg/kg group, Neut increased and PLT decreased in both male and female animals”; the “Pathology, pathological changes under the microscope” value was “bleeding and atrophy of glandular gastric mucosa; bleeding of cecal mucosa, atrophy of goblet cell, atrophy of colonic mucosa goblet cell; atrophy of splenic white pulp; and atrophy of thymic cortex or cortex and medulla, increase in tingible body macrophages and the like”. For the same molecule, in [6] (setting [7]), the “Body weight and food intake” value is “In the low-dose, middle-dose and high-dose groups, the final body weight declined, and the corresponding food intake also declined”; the Clinical observation entry was “In the middle-dose and high-dose groups, abnormal symptoms such as arched back, loose stools, perianal contamination and fluffy coat were observed”. Also, in series [6] (SD rats, dose of 60 mg/kg), the Near-death/death result was “near-dead/dead animals were found”. The molecule also registered a lethal dose in series [6] (SD rats, intragastric once/day for 7 days) of 60 mg/kg. Also, the MTD at 7 days in series [6] (both sexes, Sprague-Dawley, rat, in vivo, po, SD rats, intragastric once/day for 7 days, read-out: maximum tolerated dose (MTD)) was found to be 30 mg/kg.
